This note sets out measurements from the NIST ThermoML archive (doi:10.1016/j.jct.2018.08.021).

SMILES strings stand for the structures. ± gives the expanded uncertainty stated by the source.

The series in a line: osmotic coefficient (dimensionless); mn = molality of the nth substance listed, in mol/kg. To be noted: 303.15 K, 101.3 kPa, Liquid, Vapor-pressure osmometry (Knauer K-7000).

On to `NC(=O)c1ccc[n+]([C@@H]2O[C@H](COP(=O)([O-])OP(=O)(O)OC[C@H]3O[C@@H](n4cnc5c(N)ncnc54)[C@H](O)[C@@H]3O)[C@@H](O)[C@H]2O)c1` [β-nicotinamide adenine dinucleotide] + O, for which the osmotic coefficient came out at 0.809 ± 0.064 (m1 = 0.0476), 0.804 ± 0.065 (m1 = 0.0572), 0.771 ± 0.066 (m1 = 0.0765) and 0.73 ± 0.067 (m1 = 0.0951).
